According to patent publication US4220644A, “7-Acylamino-3-(substituted tetrazolyl thiomethyl) cephalosporins” (SmithKline Corporation, priority 1976, dated 1980):
Converted amounts (≈) assume the structure as drawn. Read-outs that look alike come from different tables or passages of the source.

Tests used:
[1] = tested on: Shigella HH 117; experiment: MIC in vitro (Table 1), Shigella HH 117; type: cell-based
Description: (§1) The compounds of Formula I have antibacterial activity against both Gram-positive and Gram-negative organisms. […] Compound names corresponding to numbers are given in the experimental section. For comparative purposes, data for cephamandole, which is 7-mandelamido-3-(1-methyltetrazol-5-ylthiomethyl)-3-cephem-4-carboxylic acid, is also given in Tables 1 and 2.

[2] = tested on: Entero. aerog. ATCC 13048; experiment: MIC in vitro (Table 1), Entero. aerog. ATCC 13048; type: cell-based
Description: (§2) Compound names corresponding to numbers are given in the experimental section. For comparative purposes, data for cephamandole, which is 7-mandelamido-3-(1-methyltetrazol-5-ylthiomethyl)-3-cephem-4-carboxylic acid, is also given in Tables 1 and 2.

[3] = tested on: Kleb. pneumo. SK 4200; experiment: MIC in vitro (Table 1), Kleb. pneumo. SK 4200; type: cell-based; conditions: in vitro, Kleb. pneumo. SK 4200; read-out: MIC
Description: as §2

[4] = tested on: S. aureus SK 23390; experiment: MIC in vitro (Table 1), S. aureus SK 23390; type: cell-based
Description: as §2

[5] = tested on: S. villaluz; experiment: MIC in vitro (Table 1), S. villaluz; type: cell-based
Description: as §1

[6] = tested on: E. coli HH 33779; experiment: MIC in vitro (Table 1), E. coli HH 33779; type: cell-based; conditions: Escherichia coli, HH33779, in vitro, E. coli HH 33779; read-out: MIC
Description: as §2

[7] = tested on: E. coli SK 12140; experiment: MIC in vitro (Table 1), E. coli SK 12140; type: cell-based; conditions: Escherichia coli, SK12140, in vitro
Description: as §2

[8] = tested on: Serra. Marc. ATCC 13880; experiment: MIC in vitro (Table 1), Serra. Marc. ATCC 13880; type: cell-based
Description: as §2

[9] = tested on: S. aureus HH 127; experiment: MIC in vitro (Table 1), S. aureus HH 127; type: cell-based; conditions: Staphylococcus aureus
Description: as §2

[10] = tested on: E. coli 12140; experiment: In vivo mouse protection (Table 2), E. coli 12140
Description: as §2

[11] = tested on: Proteus morgani 179; experiment: MIC in vitro (Table 1), Proteus morgani 179; type: cell-based
Description: as §2

[12] = tested on: Entero. cloacae HH 31254; experiment: MIC in vitro (Table 1), Entero. cloacae HH 31254; type: cell-based; conditions: Enterobacter cloacae
Description: as §2

[13] = tested on: Kleb. pneumo. SK 1200; experiment: MIC in vitro (Table 1), Kleb. pneumo. SK 1200; type: cell-based
Description: as §2

[14] = tested on: Salmonella ATCC 12176; experiment: MIC in vitro (Table 1), Salmonella ATCC 12176; type: cell-based
Description: as §1

[15] = tested on: Kleb. pneumo. 4200; experiment: In vivo mouse protection (Table 2), Kleb. pneumo. 4200
Description: as §2

[16] = tested on: Pseudo. sp. HH 63; experiment: MIC in vitro (Table 1), Pseudo. sp. HH 63; type: cell-based
Description: as §1

[17] = tested on: Strep. Faecalis HH 34358; experiment: MIC in vitro (Table 1), Strep. Faecalis HH 34358; type: cell-based; conditions: Enterococcus faecalis
Description: as §2

[18] = Shigella, HH117, in vitro, read-out: MIC
[19] = Staphylococcus aureus, SK23390, in vitro, S. aureus SK 23390, read-out: MIC
[20] = Escherichia coli, 12140, po, E. coli 12140, p.o.
[21] = Escherichia coli, 12140, sc, E. coli 12140, s.c.
[22] = Salmonella, ATCC12176, in vitro, read-out: MIC
[23] = in vitro, Pseudo. sp. HH 63, read-out: MIC
[24] = in vitro, Strep. Faecalis HH 34358, read-out: MIC
[25] = in vitro, Entero. aerog. ATCC 13048, read-out: MIC
[26] = in vitro, Serra. Marc. ATCC 13880, read-out: MIC
[27] = HH127, in vitro, S. aureus HH 127, read-out: MIC
[28] = HH31254, in vitro, Entero. cloacae HH 31254, read-out: MIC

SMILES | MIC [1, 18] [µg/mL] | MIC [3] [µg/mL] | MIC [4, 19] [µg/mL] | MIC ([5]; read-out: MIC) [µg/mL] | MIC [6] [µg/mL] | MIC [7] [µg/mL] | ED50 [10, 20] [mg/kg] | ED50 [10, 21] [mg/kg] | MIC ([11]; read-out: MIC) [µg/mL] | MIC ([13]; read-out: MIC) [µg/mL] | MIC [14, 22] [µg/mL] | ED50 ([15]; po, Kleb. pneumo. 4200, p.o.) [mg/kg] | ED50 ([15]; sc, Kleb. pneumo. 4200, s.c.) [mg/kg] | MIC [16, 23] [µg/mL] | MIC [17, 24] [µg/mL] | MIC [2, 25] [µg/mL] | MIC ([7]; read-out: MIC) [µg/mL] | MIC [8, 26] [µg/mL] | MIC [9, 27] [µg/mL] | MIC [12, 28] [µg/mL] | also measured
NC(=O)CCCn1nnnc1SCC1=C(C(=O)O)N2C(=O)C(NC(=O)[C@H](O)c3ccccc3)[C@H]2SC1 (stereo partly drawn) [XI, 7-D-Mandelamido-3-[1-(3-carbamoylpropyl)tetrazol-5-ylthiomethyl]-3-cephem-4-carboxylic acid] | 0.4 (≈ 0.75 µM) | 0.8 (≈ 1.5 µM) | 3.1 (≈ 5.81 µM) | 50 (≈ 93.7 µM) | 3.1 (≈ 5.81 µM) | 0.4 (≈ 0.75 µM) | > 50 | 1.56 | 0.8 (≈ 1.5 µM) | 0.8 (≈ 1.5 µM) | 0.8 (≈ 1.5 µM) | 25 | 0.37 | > 200 | 50 (≈ 93.7 µM) | – | – | – | – | – | MIC [2]: 3.1 µg/mL (≈ 5.81 µM); MIC [8]: 25 µg/mL (≈ 46.9 µM); MIC ([9]; HH127): 3.1 µg/mL (≈ 5.81 µM); MIC ([12]; HH31254): 3.1 µg/mL (≈ 5.81 µM)
NC(=O)Cn1nnnc1SCC1=C(C(=O)O)N2C(=O)C(NC(=O)[C@H](O)c3ccccc3)[C@H]2SC1 (stereo partly drawn) [V, 7-D-Mandelamido-3-(1-carbamoylmethyltetrazol-5-ylthiomethyl)-3-cephem-4-carboxylic acid] | 0.2 (≈ 0.396 µM) | 1.6 (≈ 3.16 µM) | 3.1 (≈ 6.13 µM) | 25 (≈ 49.5 µM) | 1.6 (≈ 3.16 µM) | – | 50 | 1.56 | 3.1 (≈ 6.13 µM) | 0.8 (≈ 1.58 µM) | 0.8 (≈ 1.58 µM) | 21.2 | 1.3 | > 200 | 25 (≈ 49.5 µM) | 1.6 (≈ 3.16 µM) | 0.8 (≈ 1.58 µM) | 12.5 (≈ 24.7 µM) | 1.6 (≈ 3.16 µM) | 0.8 (≈ 1.58 µM) | MIC ([1]; in vitro): 0.4 µg/mL (≈ 0.791 µM); MIC ([4]; in vitro, S. aureus SK 23390): 1.6 µg/mL (≈ 3.16 µM); MIC [11]: 1.6 µg/mL (≈ 3.16 µM); MIC ([12]; HH31254): 0.4 µg/mL (≈ 0.791 µM); MIC [13]: 0.4 µg/mL (≈ 0.791 µM); MIC ([14]; in vitro): 0.4 µg/mL (≈ 0.791 µM)
NC(=O)CCn1nnnc1SCC1=C(C(=O)O)N2C(=O)C(NC(=O)CSC(F)(F)F)[C@H]2SC1 (some centres unmarked) [XVI, 7-Trifluoromethylmercaptoacetamido-3-[1-(2-carbamoylethyl)tetrazol-5-ylthiomethyl]-3-cephem-4-carboxylic acid] | 0.2 (≈ 0.379 µM) | 0.8 (≈ 1.52 µM) | – | 6.3 (≈ 11.9 µM) | 1.6 (≈ 3.03 µM) | 0.4 (≈ 0.758 µM) | 25 | 0.78 | 12.5 (≈ 23.7 µM) | – | 0.4 (≈ 0.758 µM) | – | 0.54 | > 200 | – | 1.6 (≈ 3.03 µM) | – | – | 0.4 (≈ 0.758 µM) | 0.4 (≈ 0.758 µM) | MIC ([4]; Staphylococcus aureus, SK23390): 0.8 µg/mL (≈ 1.52 µM); MIC [13]: 0.4 µg/mL (≈ 0.758 µM); MIC [17]: 12.5 µg/mL (≈ 23.7 µM)
CN(C)C(=O)Cn1nnnc1SCC1=C(C(=O)O)N2C(=O)C(NC(=O)[C@H](O)c3ccccc3)C2SC1 (stereo partly drawn) [IV, 7-D-Mandelamido-3-(1-N,N-dimethylcarbamoylmethyltetrazol-5-ylthiomethyl)-3-cephem-4-carboxylic acid] | 0.8 (≈ 1.5 µM) | 3.1 (≈ 5.81 µM) | – | 50 (≈ 93.7 µM) | 6.3 (≈ 11.8 µM) | – | 168 | 2.5 | – | 1.6 (≈ 3 µM) | 3.1 (≈ 5.81 µM) | 168 | 7.5 | > 200 | 25 (≈ 46.9 µM) | 6.3 (≈ 11.8 µM) | 3.1 (≈ 5.81 µM) | 100 (≈ 187 µM) | 1.6 (≈ 3 µM) | 1.6 (≈ 3 µM) | MIC ([4]; Staphylococcus aureus, SK23390): 0.8 µg/mL (≈ 1.5 µM)
Cn1nnnc1SCC1=C(C(=O)O)N2C(=O)C(NC(=O)C(O)c3ccccc3)[C@H]2SC1 (some centres unmarked) [cephamandole, 7-mandelamido-3-(1-methyltetrazol-5-ylthiomethyl)-3-cephem-4-carboxylic acid, reference compound] | – | 1.1 (≈ 2.38 µM) | 0.6 (≈ 1.3 µM) | – | 2.6 (≈ 5.62 µM) | – | 28 | < 2 | 1.3 (≈ 2.81 µM) | 0.6 (≈ 1.3 µM) | – | > 50 | 0.96 | – | 2.3 (≈ 4.97 µM) | 2.9 (≈ 6.27 µM) | 1.1 (≈ 2.38 µM) | 13 (≈ 28.1 µM) | 1 (≈ 2.16 µM) | 0.7 (≈ 1.51 µM) | MIC ([1]; Shigella, HH117, in vitro): 0.2 µg/mL (≈ 0.432 µM); MIC [5]: 8 µg/mL (≈ 17.3 µM); MIC ([14]; Salmonella, ATCC12176, in vitro): 0.6 µg/mL (≈ 1.3 µM); MIC [16]: > 200 µg/mL
